Results as given in ChEMBL document CHEMBL3817789 (2016).
Converted amounts (≈) assume the structure as drawn.

What was measured:
Type in all cases: functional
Staphylococcus aureus [1] = test: Antibacterial activity against methicillin-resistant Staphylococcus aureus isolate SDSM1503 after 24 hrs by broth microdilution method; settings: isolate SDSM1503, 24 h
Staphylococcus aureus [2] = test: Antibacterial activity against methicillin-sensitive Staphylococcus aureus isolate SDS15016 after 24 hrs by broth microdilution method; settings: isolate SDS15016, 24 h
Candida albicans = test: Antifungal activity against clinical isolates of Candida albicans SC5314 after 48 hrs by broth microdilution method; settings: SC5314, 48 h

Compound	MIC (Staphylococcus aureus [1]) [µg/mL]	MIC (Staphylococcus aureus [2]) [µg/mL]	MIC80 (Candida albicans) [µg/mL]
Oc1cc2ccc1Oc1cc(ccc1O)CCc1ccc(c(O)c1)-c1c(O)cccc1CC2	4 (≈ 9.08 µM)	2 (≈ 4.54 µM)	> 64
Oc1cc2ccc1-c1c(ccc(Br)c1O)CCc1ccc(cc1)Oc1cc(cc(Br)c1O)CC2	16 (≈ 27.5 µM)	8 (≈ 13.7 µM)	> 64
Oc1ccc2cc1Oc1ccc(cc1)CCc1cccc(O)c1-c1ccc(c(Br)c1O)CC2	8 (≈ 15.9 µM)	2 (≈ 3.97 µM)	> 64
COc1cccc2c1-c1ccc(cc1O)CCc1ccc(O)c(c1)Oc1ccc(cc1)CC2	4 (≈ 9.12 µM)	2 (≈ 4.56 µM)	> 64
Oc1ccc2cc1Oc1ccc(cc1)CCc1c(Br)ccc(O)c1-c1ccc(c(Br)c1O)CC2	4 (≈ 6.87 µM)	2 (≈ 3.43 µM)	8 (≈ 13.7 µM)
Oc1ccc2cc1Oc1ccc(cc1)CCc1cccc(O)c1-c1cc(Br)c(cc1O)CC2	4 (≈ 7.95 µM)	2 (≈ 3.97 µM)	> 64
Oc1cc2ccc1-c1c(O)cccc1CCc1ccc(cc1)Oc1cc(cc(O)c1O)CC2	8 (≈ 18.2 µM)	2 (≈ 4.54 µM)	> 64
Oc1ccc2cc1Oc1ccc(cc1)CCc1ccc(Br)c(O)c1-c1ccc(c(Br)c1O)CC2	16 (≈ 27.5 µM)	4 (≈ 6.87 µM)	> 64
Oc1ccc2cc1Oc1ccc(cc1)CCc1ccc(Br)c(O)c1-c1cc(Br)c(cc1O)CC2	4 (≈ 6.87 µM)	2 (≈ 3.43 µM)	> 64
COc1cc2ccc1-c1c(O)cccc1CCc1ccc(cc1)Oc1cc(ccc1O)CC2	8 (≈ 18.2 µM)	2 (≈ 4.56 µM)	> 64
Oc1cc2ccc1Oc1cc(cc(O)c1O)CCc1ccc(c(O)c1)-c1c(O)cccc1CC2	16 (≈ 35 µM)	8 (≈ 17.5 µM)	> 64
Oc1ccc2cc1Oc1ccc(cc1)CCc1c(Br)ccc(O)c1-c1cc(Br)c(cc1O)CC2	4 (≈ 6.87 µM)	2 (≈ 3.43 µM)	8 (≈ 13.7 µM)
Cc1onc(-c2ccccc2)c1C(=O)N[C@@H]1C(=O)N2[C@@H]1SC(C)(C)[C@@H]2C(=O)[O-].[Na+]	> 128	8	–
CO/N=C(\C(=O)N[C@@H]1C(=O)N2C(C(=O)O)=C(COC(C)=O)CS[C@H]12)c1csc(N)n1 [CEFOTAXIME]	> 128	4 (≈ 8.78 µM)	–
CC(C)(O/N=C(\C(=O)N[C@@H]1C(=O)N2C(C(=O)[O-])=C(C[n+]3ccccc3)CS[C@H]12)c1csc(N)n1)C(=O)O [CEFTAZIDIME]	> 128	4 (≈ 7.32 µM)	–
Cc1onc(-c2ccccc2Cl)c1C(=O)N[C@@H]1C(=O)N2[C@@H]1SC(C)(C)[C@@H]2C(=O)O [CLOXACILLIN]	> 128	0.5 (≈ 1.15 µM)	–
OC(Cn1cncn1)(Cn1cncn1)c1ccc(F)cc1F [FLUCONAZOLE]	–	–	2 (≈ 6.53 µM)
